Assay results as given in US20050233377A1, “Drug screening method for the treatment of brain damage” (priority 2004, published 2005).

How the values were obtained:
PDZ2 of PSD-95 = molecular target: T1, PDZ2 of PSD-95 (Rattus norvegicus, UniProt P31016); assay: NMR chemical shift perturbation assay (1H-15N HSQC) of binding to 15N-labeled PDZ2; conditions: for structural perturbation of PDZ2 (chemical shift of amide groups of Ser 173 and Ala 231 normalized to maximal shift with crude extract = 100%): 10-fold excess of compound relative to PDZ2
T1 construct: His tag (N); made in house; host or cells: Escherichia coli BL21 (DE3), pET14b
Method: In this specific non-limiting example, the PDZ-domain of recombinant PSD-95 was uniformly labeled with ^15N using the recombinant protein production method described. The ^15N-labeled PSD-95 was expressed in and purified from E. coli bacterial cells. The NMR spectra was acquired at 30° C. on Varian Inova 500 or 750 spectrometers each equipped with a 5 mm z-shielded gradient triple resonance probes. Lyophilized ^15N-labeled PDZ2 protein dissolved in 100 mM potassium phosphate buffer at pH 6.0, with a pure recombinant protein concentration of ˜0.1-0.2 mM (typically 0.5 ml in 100 mM phosphate buffer) for spectral analysis.
Since the identity of every resonances of the ^1H-^15N HSQC spectrum of PSD-95 PDZ domains is known, and the three dimensional structures of the PSD-95 PDZ domains could be elucidated, the quantitative values of compound-induced chemical shift changes for each amino acid residues of PSD-95 PDZ2 were computed using the equation: Δppm=[(ΔδHN)^2+(ΔδN·αN)^2]^1/2
The scaling factor αN used to normalize ^1H and ^15N chemical shifts was 0.17. ΔδHN corresponded to the change of the ^15N-bonded hydrogen chemical shift of a specific resonance, while ΔδN corresponded to the change of the ^15N chemical shift of that resonance.
In this method, the PDZ domain of PSD-95 is expressed recombinantly as described in Example 1 and uniformly labeled with ^15N using a recombinant protein production method. […]
Using preparation techniques mentioned above, a ^1H,^15N HSQC spectrum was recorded for each mixture of bound PDZ2 protein, and compared with the ^1H,^15N HSQC spectrum of free PSD-95 PDZ2 (˜0.1 mM in the same buffer). […]
The observation of chemical shift changes (with respect to the free PDZ2) as a result of mixing the protein with the herbal mixtures or pure compounds was scored as positive binding of compound(s) to PDS-95 PDZ2. […]
The binding affinity of the compounds to PDZ2 of PSD-95 was quantified by normalizing the chemical shift of the amide groups of Ser 173 and Ala 231 in relation to the maximal shift of these groups upon incubation with the crude extract (100%). […]

[1] = format: physicochemical
Description: Both compounds were therefore dissolved in DMSO for the NMR titration experiments.

T1 sequence (P31016 156-249): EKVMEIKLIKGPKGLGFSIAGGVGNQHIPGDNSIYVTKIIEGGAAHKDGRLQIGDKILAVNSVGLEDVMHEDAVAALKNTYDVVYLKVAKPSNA

SMILES	structural perturbation of PDZ2 (chemical shift of amide groups of Ser 173 and Ala 231 normalized to maximal shift with crude extract = 100%) (PDZ2 of PSD-95)	chemical shift changes of PSD-95 PDZ2 HSQC spectrum relative to free PDZ2 (scored as positive binding) (PDZ2 of PSD-95; 15N-labeled PDZ2 0.1-0.2 mM, 100 mM phosphate buffer pH 6.0)	solubility in H2O [1]
O=C(O)[C@H]1O[C@@H](Oc2cc3oc(-c4ccccc4)cc(=O)c3c(O)c2O)[C@H](O)[C@@H](O)[C@@H]1O [baicalin]	around 60%	significant chemical shift changes	very poor solubility
O=C(O)[C@H]1O[C@@H](Oc2cc(O)c3c(=O)cc(-c4ccccc4)oc3c2O)[C@H](O)[C@@H](O)[C@@H]1O [norwogonoside]	around 60%		
COc1c(O[C@@H]2O[C@H](C(=O)O)[C@@H](O)[C@H](O)[C@H]2O)cc(O)c2c(=O)cc(-c3ccccc3)oc12 [wogonoside]			very poor solubility
